Columns and labels:
HeLa cells = test: MTT anti-proliferation assay, HeLa; assay type: cell-based, human; conditions: Homo sapiens, 48 h, mean ± SD
Method: All cell types, at a volume of 200 µL per well, were inoculated in 96-well plates at a density of 2.5 × 10^4 cells / mL and cultured for 24 h in an incubator with 5% CO2 at 37 °C. The old culture medium was replaced with 200 µL of fresh medium per well containing positive compounds, at concentrations of 1, 6.25, 12.5, 25, 50, and 100 μM. After 48 h of culture, 20 µL per well of 5 mg·mL^−1 MTT solution was added. After 4 h of culture, the old solution was discarded, and 150 µL per well of DMSO solution was added. Using an enzyme labeler (Thermo Fisher Scientific, Multiskan GO, Waltham, MA, USA), the plates were shaken for 10 min, OD values were determined at 490 nm, and the inhibition rate was calculated. Non-linear regression fitting of the cell growth rate was carried out using SPSS 23.0, and the IC50 of the compound was calculated. The inhibition rate was calculated using the formula: [(ODempty − ODtest)/(ODempty − ODnegative group)] × 100%, (ODempty blank group absorbance, ODtest absorbance of administration group, ODnegative group without cell culture medium). Each group contained six compound holes, and the experimental results averaged three trials. Complete medium containing only cells was used as the blank control; a complete medium without cells as was used as the negative control; and cisplatin, paclitaxel, and adriamycin were used as the positive controls. The concentration gradient was the same as that used for compounds 3a–3p. […]

SiHa cells = test: MTT anti-proliferation assay, SiHa; assay type: cell-based, human; conditions: Homo sapiens, 48 h, mean ± SD
Method: (§1) All cell types, at a volume of 200 µL per well, were inoculated in 96-well plates at a density of 2.5 × 10^4 cells / mL and cultured for 24 h in an incubator with 5% CO2 at 37 °C. The old culture medium was replaced with 200 µL of fresh medium per well containing positive compounds, at concentrations of 1, 6.25, 12.5, 25, 50, and 100 μM. After 48 h of culture, 20 µL per well of 5 mg·mL^−1 MTT solution was added. After 4 h of culture, the old solution was discarded, and 150 µL per well of DMSO solution was added. Using an enzyme labeler (Thermo Fisher Scientific, Multiskan GO, Waltham, MA, USA), the plates were shaken for 10 min, OD values were determined at 490 nm, and the inhibition rate was calculated. Non-linear regression fitting of the cell growth rate was carried out using SPSS 23.0, and the IC50 of the compound was calculated. The inhibition rate was calculated using the formula: [(ODempty − ODtest)/(ODempty − ODnegative group)] × 100%, (ODempty blank group absorbance, ODtest absorbance of administration group, ODnegative group without cell culture medium). Each group contained six compound holes, and the experimental results averaged three trials. Complete medium containing only cells was used as the blank control; a complete medium without cells as was used as the negative control; and cisplatin, paclitaxel, and adriamycin were used as the positive controls. The concentration gradient was the same as that used for compounds 3a–3p.

C33A cells = test: MTT anti-proliferation assay, C33A; assay type: cell-based, human; conditions: Homo sapiens, C-33-A, 48 h, mean ± SD
Method: as §1

[1] = tested on: human cervical epithelial cells H8; test: MTT toxicity assay, normal cervical epithelial cells H8; assay type: cell-based; conditions: Homo sapiens, Epithelial cell, 48 h, mean ± SD
Method: as §1

HeLa/DDP cells = test: MTT anti-cisplatin-resistant cervical cancer activity, HeLa/DDP; assay type: cell-based, human; conditions: 48 h
Method: as §1
To mitigate the detrimental consequences arising from the fixation of resistance reversal agents, concentrations that yielded a tumor cell proliferation rate reduction of less than 10% were selected. Consequently, the inhibitory efficacy of compound 3k against HeLa/DDP cells was assessed in conjunction with cisplatin at concentrations of 0.25, 0.5, and 1 μM. The experimental procedure employed was akin to that elucidated in Section 3.3.2. The impact of verapamil (6 μM) and 3k (0.25, 0.5, and 1 μM) on P-gp expression was ascertained via Western blot experiments, employing the same methodology delineated in Section 3.3.4.

| SMILES | IC50 (HeLa cells) | melting point | IC50 (HeLa/DDP cells; Homo sapiens, HeLa/DDP, MTT, mean ± SD) | IC50 (SiHa cells) | IC50 (C33A cells) | IC50 [1] | resistance index (RI) (HeLa/DDP cells; HeLa/DDP versus parental HeLa) |
| --- | --- | --- | --- | --- | --- | --- | --- |
| COc1cc(OC)c(/C=C(\C)C(=O)c2ccc(Cl)cc2Cl)c(OC)c1 [Compound 3e, (E)-1-(2,4-dichlorophenyl)-2-methyl-3-(2,4,6-trimethoxyphenyl)prop-2-en-1-one] | > 100 µM | 104.6 to 105.7 °C |  | > 100 µM | > 100 µM | > 100 µM |  |
| COc1ccc(/C=C(\C)C(=O)c2ccc(Cl)c(Cl)c2)c(OC)c1 [Compound 3f, (E)-1-(3,4-dichlorophenyl)-3-(2,4-dimethoxyphenyl)-2-methylprop-2-en-1-one] | > 100 µM | 112.3 to 113.6 °C |  | > 100 µM | 23.7 ± 4.07 µM | > 100 µM |  |
| COc1cc(/C=C(\C)C(=O)c2ccc(Cl)c(Cl)c2)cc(OC)c1 [Compound 3h, (E)-1-(3,4-Dichlorophenyl)-3-(3,5-dimethoxyphenyl)-2-methylprop-2-en-1-one] | > 100 µM | 157 to 158.1 °C |  | > 100 µM | 54.4 ± 11.5 µM | > 100 µM |  |
| COc1cccc(/C=C(\C)C(=O)c2ccc(Cl)c(Cl)c2)c1OC [Compound 3i, (E)-1-(3,4-Dichlorophenyl)-3-(2,3-dimethoxyphenyl)-2-methylprop-2-en-1-one] | > 100 µM | 99.8 to 100.7 °C |  | > 100 µM | 30.7 ± 8.84 µM | > 100 µM |  |
| COc1ccc(OC)c(/C=C(\C)C(=O)c2ccc(Cl)c(Cl)c2)c1 [Compound 3j, (E)-1-(3,4-Dichlorophenyl)-3-(2,5-dimethoxyphenyl)-2-methylprop-2-en-1-one] | > 100 µM |  |  | > 100 µM | 28.5 ± 3.78 µM | > 100 µM |  |
| COc1ccccc1/C=C(\C)C(=O)c1ccc(Cl)c(Cl)c1 [Compound 3l, (E)-1-(3,4-Dichlorophenyl)-3-(2-methoxyphenyl)-2-methylprop-2-en-1-one] | > 100 µM | 92.8 to 93.6 °C |  | 22.5 ± 1.36 µM | 17.3 ± 2.24 µM | > 100 µM |  |
| C/C(=C\c1ccc(N(C)C)cc1)C(=O)c1ccc(Cl)c(Cl)c1 [Compound 3n, (E)-1-(3,4-Dichlorophenyl)-3-(4-(dimethylamino)phenyl)-2-methylprop-2-en-1-one] | > 100 µM | 184 to 184.8 °C |  | > 100 µM | 23.4 ± 3.42 µM | > 100 µM |  |
| CCN(CC)c1ccc(/C=C(\C)C(=O)c2ccc(Cl)c(Cl)c2)cc1 [Compound 3o, (E)-1-(3,4-Dichlorophenyl)-3-(4-(diethylamino)phenyl)-2-methylprop-2-en-1-one] | > 100 µM | 186.7 to 190.8 °C |  | > 100 µM | 35 ± 4.93 µM | > 100 µM |  |
| CCN(CC)c1ccc(/C=C(\C)C(=O)c2ccc(Cl)cc2Cl)cc1 [Compound 3p, (E)-1-(2,4-Dichlorophenyl)-3-(4-(diethylamino)phenyl)-2-methylprop-2-en-1-one] | > 100 µM |  |  | > 100 µM | 41.4 ± 5.42 µM | > 100 µM |  |

Further lines, with some results ahead:

| IC50 (HeLa cells) | melting point | IC50 (HeLa/DDP cells; Homo sapiens, HeLa/DDP, MTT, mean ± SD) | SMILES | IC50 (SiHa cells) | IC50 (C33A cells) | IC50 [1] | resistance index (RI) (HeLa/DDP cells; HeLa/DDP versus parental HeLa) |
| --- | --- | --- | --- | --- | --- | --- | --- |
| > 100 µM | 129.6 to 130.5 °C |  | COc1cc(OC)c(OC)cc1/C=C(\C)C(=O)c1ccc(Cl)c(Cl)c1 [Compound 3a, (E)-1-(3,4-Dichlorophenyl)-2-methyl-3-(2,4,5-trimethoxyphenyl)prop-2-en-1-one] | 23.5 ± 4.55 µM | 69.9 ± 7.18 µM | > 100 µM |  |
| 43.8 ± 3.68 µM |  |  | COc1cc(/C=C(\C)C(=O)c2ccc(Cl)c(Cl)c2)cc(OC)c1OC [Compound 3b, (E)-1-(3,4-Dichlorophenyl)-2-methyl-3-(3,4,5-trimethoxyphenyl)prop-2-en-1-One] | 28.4 ± 2.37 µM | 57 ± 6.27 µM | 57.7 ± 4.7 µM |  |
| > 100 µM | 114.1 to 115.5 °C |  | COc1ccc(/C=C(\C)C(=O)c2ccc(Cl)c(Cl)c2)c(OC)c1OC [Compound 3c, (E)-1-(3,4-Dichlorophenyl)-2-methyl-3-(2,3,4-trimethoxyphenyl)prop-2-en-1-one] | 41.8 ± 5.1 µM | 33.9 ± 4.99 µM | > 100 µM |  |
| 97.6 ± 7.61 µM | 67.1 to 67.8 °C |  | COc1cc(OC)c(/C=C(\C)C(=O)c2ccc(Cl)c(Cl)c2)c(OC)c1 [Compound 3d, (E)-1-(3,4-Dichlorophenyl)-2-methyl-3-(2,4,6-trimethoxyphenyl)prop-2-en-1-one] | > 100 µM | 63.7 ± 2.59 µM | > 100 µM |  |
| 56.1 ± 4.58 µM | 134.4 to 135.6 °C |  | COc1cccc(OC)c1/C=C(\C)C(=O)c1ccc(Cl)c(Cl)c1 [Compound 3g, (E)-1-(3,4-dichlorophenyl)-3-(2,6-dimethoxyphenyl)-2-methylprop-2-en-1-one] | > 100 µM | 44.8 ± 2.85 µM | > 100 µM |  |
| 29.8 ± 0.98 µM | 70 to 71.1 °C |  | COc1ccc(/C=C(\C)C(=O)c2ccc(Cl)c(Cl)c2)cc1 [Compound 3m, (E)-1-(3,4-Dichlorophenyl)-3-(4-methoxyphenyl)-2-methylprop-2-en-1-one] | 67.7 ± 5.6 µM | 35.1 ± 4.75 µM | > 100 µM |  |
| 10.4 ± 1.09 µM |  | 38.3 ± 4.57 µM | COc1cccc2c1C(=O)c1c(O)c3c(c(O)c1C2=O)C[C@@](O)(C(=O)CO)C[C@@H]3O[C@H]1C[C@H](N)[C@H](O)[C@H](C)O1 [Doxorubicin] |  |  |  | 3.68 |

Source: PMC10707934, “Design and Synthesis of Novel α-Methylchalcone Derivatives, Anti-Cervical Cancer Activity, and Reversal of Drug Resistance in HeLa/DDP Cells” (Molecules, 2023)
